Test system: CHLA9 and RD-ES cells
Experiment: Transwell migration assay of ES cells
Type: cell-based
Conditions: DEX 1 μM, RU486 1 μM, D06 10 μM; 20 hours
Experimental: (A) CHLA9 cells were seeded in 100-mm dishes. Once they reached sub-maximal density, cells were starved overnight for serum factors. […] Cells were then extracted and the lysates were processed for co-immunoprecipitation assays using an antibody against GR followed by immunobloting that used an antibody against EWS. The image shown is representative of 3 biological replicates. Signals were quantified and normalized (see numbers below each lane). EB, empty beads. […] (C-D) CHLA9 cells were seeded on the upper faces of either Transwell migration chambers or Matrigel-coated invasion chambers, and further incubated for 20 hours in full medium. Control siRNAs or siRNAs specific to either GR or EWS-FLI1 were added to cells 24 hours prior to seeding, and both cell migration and invasion were measured 20 hours later. […] Cells that reached the lower faces of the chambers were fixed and stained. Shown are representative images of stained cells. The bar plots show quantification, using ImageJ, of the area covered by cells. *, p≤0.05, **, p≤0.005. Bars, 500 μm. […] The bar plots show quantification, using ImageJ, of the area covered by cells. *, p≤0.05, **, p≤0.005. […]
(A) RD-ES cells were seeded in 100-mm dishes. […] Cell migration/invasion was determined 20 hours later.

SMILES: CC#C[C@]1(O)CC[C@H]2[C@@H]3CCC4=CC(=O)CCC4=C3[C@@H](c3ccc(N(C)C)cc3)C[C@@]21C [RU486, Mifepristone]
- cell migration: inhibited
